Source: publication PMC9499386, “New Inhibitors of the Human p300/CBP Acetyltransferase Are Selectively Active against the Arabidopsis HAC Proteins” (International Journal of Molecular Sciences, 2022)

What was measured:
[1] = target: T1, HAC1 catalytic domain (recombinant HAC1) (Arabidopsis thaliana, UniProt Q9C5X9); experiment: colorimetric antibody-based HAT activity assay (EpiGentek P-4003), […] nm; format: biochemical; conditions: kit HAT substrate as acetyl acceptor, 45 min at 37 °C; partially purified enzyme
T1 construct: HAT catalytic domain aa 1081-1517 (nt 3241-4551 of CDS), C-terminal 6xHis tag, pET28a, E. coli BL21(DE3), partially purified, 52 kDa
T1 sequence (Q9C5X9 1081-1517): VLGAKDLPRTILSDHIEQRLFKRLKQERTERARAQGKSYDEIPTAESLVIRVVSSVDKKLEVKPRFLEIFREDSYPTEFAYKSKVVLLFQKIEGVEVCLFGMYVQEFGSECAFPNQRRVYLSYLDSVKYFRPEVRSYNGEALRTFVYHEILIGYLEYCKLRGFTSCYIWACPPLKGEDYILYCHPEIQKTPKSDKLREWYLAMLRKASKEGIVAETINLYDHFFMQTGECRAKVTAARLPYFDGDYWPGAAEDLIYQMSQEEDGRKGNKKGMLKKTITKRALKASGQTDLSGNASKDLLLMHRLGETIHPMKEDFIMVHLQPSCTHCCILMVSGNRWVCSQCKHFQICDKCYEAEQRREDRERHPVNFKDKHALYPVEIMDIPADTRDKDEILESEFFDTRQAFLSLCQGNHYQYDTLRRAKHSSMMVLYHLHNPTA

[2] = target: T1, HAC1 catalytic domain (recombinant HAC1); experiment: as above; format: biochemical

Row | inhibition at 6 µM [2] [%] | Structure (SMILES) | colorimetric antibody-based HAT activity assay (EpiGentek P-4003), 450 nm [1]
1 |  | CC(=O)SCCNC(=O)CCNC(=O)[C@H](O)C(C)(C)COP(=O)(O)OP(=O)(O)OC[C@H]1O[C@@H](n2cnc3c(N)ncnc32)[C@H](O)[C@@H]1OP(=O)(O)O [acetyl-CoA] | strip wells were incubated with acetyl-CoA and partially purified HAC1 catalytic domain
2 | 83 | O=C1C(Cc2ccc(O)c(Br)c2)CCCC1Cc1ccc(O)c(Br)c1 (centres unmarked) [2c, 2,6-Bis(3-bromo-4-hydroxybenzyl)cyclohexanone] | 
